From PMC4706877, “Antibacterial and Cytotoxic Activity of Compounds Isolated from Flourensia oolepis” (Evidence-based Complementary and Alternative Medicine : eCAM, 2015)
≈ marks a conversion by molar mass, not a printed value. Read-outs that look alike come from different tables or passages of the source.

Legend:
[1] = tested on: Enterococcus faecalis (ATCC 29212); test: Agar dilution MIC / MBC; type: cell-based; conditions: ATCC29212, E. faecalis
Method: (§1) This isolate was identified by conventional biochemical assays and by the commercial system API20E (bioMérieux SA, Mercy L'Etoile, France). Antimicrobial resistances were determined by disk diffusion susceptibility testing (Kirby-Bauer Method) according to CLSI [15]. Bacterial suspensions were prepared on sterile saline from each organism grown overnight. Turbidity was spectrophotometrically adjusted to the McFarland 0.5 standard. Dilutions were carried out with sterile saline to give an adjusted concentration of 1.5 × 10^7 colony-forming units/mL.
(§2) Three independent experiments were carried out. […] For reading, visual observations were carried out.

[2] = tested on: Escherichia coli (ATCC 25922); test: Agar dilution MIC / MBC; type: cell-based; conditions: ATCC25922, E. coli
Method: as §1, §2

[3] = tested on: Pseudomonas aeruginosa (ATCC 27853); test: Agar dilution MIC / MBC; type: cell-based; conditions: ATCC27853, P. aeruginosa
Method: as §1, §2

[4] = tested on: Staphylococcus aureus subsp. aureus (ATCC 6538); test: Agar dilution MIC / MBC; type: cell-based; conditions: S. aureus; for MBC: value in parentheses
Method: as §1, §2

[5] = tested on: tetracycline, erythromycin, and polymyxin-resistant Proteus mirabilis (Pr2921); test: Agar dilution MIC / MBC; type: cell-based; conditions: P. mirabilis
Method: as §1, §2

[6] = tested on: CCRF-CEM acute lymphoblastic leukemia cells; test: MTT cell proliferation assay; type: cell-based, human; conditions: for IC50: CCRF-CEM, MTT, 72 h, read-out: IC50 values and 95% confidence limits (lower, upper)
Method: (§3) The HEK293T non-tumor derived cell line and human isolated mononuclear cells (PBMC) were also tested. […] Cells were cultured at 37°C in a 5% CO2 humidified environment.
(§4) To investigate the cytotoxic potential of the isolated compounds, the MTT colorimetric assay was performed. […] The compounds were evaluated at a final maximum concentration of 100 μM. After 72 hours, 20 μL of 5 mg/mL solution of MTT in sterile PBS was added to each well and further incubated for 4 h. Then, the supernatants were removed and replaced with 100 μL DMSO to solubilize the resulting purple formazan crystals produced from metabolically viable cells. Absorbance was measured with an iMark micro-plate reader (Bio-Rad, USA) at 595 nm. Two wells were used for each concentration of the products assayed and three independent experiments were performed. […] The percentage of cytotoxic activity of the assayed compounds was determined by the following formula: cytotoxicity (%) = [1 − (optical density of treated cells − optical density DMSO)/(optical density of ethanol control cells − optical density DMSO)] × 100.
(§5) Data were analyzed by one-way analysis of variance (ANOVA) and means were compared using Bonferroni's comparison test, with p ≤ 0.05 considered as statistically significant.

[7] = tested on: K562 chronic myeloid leukemia cells; test: MTT cell proliferation assay; type: cell-based, human; conditions: for IC50: K562, MTT, 72 h, read-out: IC50 values and 95% confidence limits (lower, upper)
Method: as §3, §4, §5

[8] = tested on: peripheral blood mononuclear cells (PBMC); test: MTT cell proliferation assay; type: cell-based; conditions: Homo sapiens
Text: (§6) CCRF-CEM acute lymphoblastic leukemia (ALL) and K562 chronic myeloid leukemia (CML) cells and their MDR P-glycoprotein overexpressing variants, CEM/ADR5000 and Lucena 1, respectively, were a generous gift from Dr. T. Efferth (Institute of Pharmacy and Biochemistry, Johannes Gutenberg University, Mainz, Germany) and Dr. V. Rumjanek (Instituto de Bioquímica Médica Leopoldo de Meis, Universidade Federal do Rio de Janeiro, Rio de Janeiro, Brazil), respectively. The HEK293T non-tumor derived cell line and human isolated mononuclear cells (PBMC) were also tested. […]
(§7) To investigate the cytotoxic potential of the isolated compounds, the MTT colorimetric assay was performed. […] The compounds were evaluated at a final maximum concentration of 100 μM. […] Absorbance was measured with an iMark micro-plate reader (Bio-Rad, USA) at 595 nm. […] The percentage of cytotoxic activity of the assayed compounds was determined by the following formula: cytotoxicity (%) = [1 − (optical density of treated cells − optical density DMSO)/(optical density of ethanol control cells − optical density DMSO)] × 100.

CCRF-CEM cells = test: Viable cell count by trypan blue dye exclusion; type: cell-based, human
Method: (§8) To confirm the effect of compound 1 on the proliferation of CCRF-CEM and K562, cell suspensions (5 × 10^4 cells/well) were treated in culture medium with different concentrations of 1 (final volume of 200 μL) and incubated in triplicate for 24, 48, and 72 h. Two independent experiments were performed. The number of viable cells at the different time points was counted by the trypan blue dye exclusion method using a hemocytometer (Neubaur, USA).

K562 cells = test: Viable cell count by trypan blue dye exclusion; type: cell-based, human
Method: as §8

ALL cells = test: MTT assay, summary; type: cell-based; conditions: Homo sapiens, read-out: IC50, range
Text: as §6, §7

CML cells = test: MTT assay, summary; type: cell-based; conditions: Homo sapiens, read-out: IC50, range
Text: as §6, §7

[9] = tested on: sensitive and resistant leukemic cells; test: MTT assay, summary over leukemic cell lines; type: cell-based; conditions: Homo sapiens, read-out: IC50 values, range
Text: as §6, §7

O=C(/C=C/c1ccccc1)c1ccc(O)cc1O [Compound 1, 2′,4′-dihydroxychalcone]
MIC ([1]; agar dilution, 24 h): 62 µg/mL (≈ 258 µM)
MBC ([1]; value in parentheses): 125 µg/mL (≈ 520 µM)
MIC ([2]; agar dilution, 24 h): 250 µg/mL (≈ 1040 µM)
MBC ([2]; value in parentheses): 500 µg/mL (≈ 2080 µM)
MIC ([3]; agar dilution, 24 h): 250 µg/mL (≈ 1040 µM)
MBC ([3]; value in parentheses): > 500 µg/mL
MBC [4]: 31 (31) μg/mL
MIC ([4]; Staphylococcus aureus, ATCC6538, agar dilution, 24 h): 31 µg/mL (≈ 129 µM)
MBC ([4]; Staphylococcus aureus, ATCC6538, read-out: MBC): 31 µg/mL (≈ 129 µM)
MIC ([5]; agar dilution, 24 h): 62 µg/mL (≈ 258 µM)
MBC ([5]; value in parentheses): 125 µg/mL (≈ 520 µM)
IC50 [6]: 6.6 µM
IC50 ([6]; Homo sapiens): < 10 µM
selectivity index (SI) ([6]; IC50 HEK293T / IC50 CCRF-CEM): 10.1
selectivity index (SI) ([6]; IC50 PBMC / IC50 CCRF-CEM): 12.5
IC50 ([7]; Homo sapiens, K562, 72 h): < 30 µM
selectivity index (SI) ([7]; IC50 PBMC / IC50 K562): 3.0
IC50 [7]: 27.5 µM
IC50 [8]: 82.8 µM
time at which a significant difference (p < 0.05) in number of viable cells vs ethanol control was observed (CCRF-CEM cells; 2.6 μM): 72 h
time at which a significant difference (p < 0.05) in number of viable cells vs ethanol control was observed (CCRF-CEM cells; 5.2 μM): 48 h
time at which a significant decrease (p < 0.05) in number of viable cells vs ethanol control was observed (K562 cells; 20.8 μM): 48 h
time at which a significant decrease (p < 0.05) in number of viable cells vs ethanol control was observed (K562 cells; 41.6 μM): 24 h
IC50 (ALL cells): 6.6 to 9.9 µM
IC50 (CML cells): 27.5 to 30 µM
IC50 [9]: 6.6 to 30 µM
